According to ChEMBL document CHEMBL4270495, “Oleanane-, ursane-, and quinone methide friedelane-type triterpenoid derivatives: Recent advances in cancer treatment” (Eur J Med Chem, 2017):

What was measured:
Assay type in all cases: functional, cell-based
MDA-MB-231 = assay: Cytotoxicity in human MDA-MB-231 cells assessed as reduction in cell viability incubated for 24 hrs by MTT assay; details: MDA-MB-231, 24 h
MCF7 [1] = assay: Cytotoxicity in human MCF7 cells assessed as reduction in cell viability incubated for 24 hrs by MTT assay; details: MCF7, 24 h
MDA-MB-468 = assay: Cytotoxicity in human MDA-MB-468 cells assessed as reduction in cell viability incubated for 24 hrs by MTT assay; details: MDA-MB-468, 24 h
T47D = assay: Cytotoxicity in human T47D cells assessed as reduction in cell viability incubated for 24 hrs by MTT assay
MCF-12A = assay: Cytotoxicity in human MCF12A cells assessed as reduction in cell viability incubated for 24 hrs by MTT assay
HL-60 = assay: Cytotoxicity in human HL60 cells assessed as reduction in cell viability incubated for 24 hrs by MTT assay; details: HL-60, 24 h
HL60/ADR = assay: Cytotoxicity in human HL60/ADR cells assessed as reduction in cell viability incubated for 24 hrs by MTT assay
HT-29 [2] = assay: Cytotoxicity in human HT-29 cells assessed as reduction in cell viability incubated for 96 hrs by SRB assay; details: HT-29, 96 h
A549 [3] = assay: Cytotoxicity in human A549 cells assessed as reduction in cell viability incubated for 96 hrs by SRB assay; details: A549, 96 h
SGC-7901 [4] = assay: Cytotoxicity in human SGC7901 cells assessed as reduction in cell viability incubated for 48 hrs by MTT assay; details: SGC-7901, 48 h
SMMC-7721 = assay: Cytotoxicity in human SMMC7721 cells assessed as reduction in cell viability incubated for 48 hrs by MTT assay; details: SMMC-7721, 48 h
HepG2 [5] = assay: Cytotoxicity in human HepG2 cells assessed as reduction in cell viability incubated for 72 hrs by CCK8 assay; details: HepG2, 72 h
A549 [6] = assay: Cytotoxicity in human A549 cells assessed as reduction in cell viability incubated for 72 hrs by CCK8 assay; details: A549, 72 h
HeLa [7] = assay: Cytotoxicity in human HeLa cells assessed as reduction in cell viability incubated for 72 hrs by CCK8 assay
PC-3 = assay: Cytotoxicity in human PC3 cells assessed as reduction in cell viability incubated for 72 hrs by CCK8 assay; details: PC-3, 72 h
HT-29 [8] = assay: Cytotoxicity in human HT-29 cells assessed as reduction in cell viability incubated for 72 hrs by MTT assay; details: HT-29, 72 h
HepG2 [9] = assay: Cytotoxicity in human HepG2 cells assessed as reduction in cell viability incubated for 72 hrs by MTT assay; details: HepG2, 72 h
B16-F10 = assay: Cytotoxicity in mouse B16F10 cells assessed as reduction in cell viability incubated for 72 hrs by MTT assay; details: B16-F10, 72 h
MCF7 [10] = assay: Cytotoxicity in human MCF7 cells assessed as reduction in cell viability incubated for 72 hrs by CCK8 assay; details: MCF7, 72 h
SGC-7901 [11] = assay: Cytotoxicity in human SGC7901 cells assessed as reduction in cell viability incubated for 72 hrs by CCK8 assay; details: SGC-7901, 72 h
HepG2 [12] = assay: Cytotoxicity in human HepG2 cells assessed as reduction in cell viability incubated for 24 hrs by MTT assay; details: HepG2, 24 h
MCF7 [13] = assay: Cytotoxicity in human MCF7 cells assessed as reduction in cell viability
[14] = Cytotoxicity in human […] cells assessed as reduction in cell viability incubated for 72 hrs by MTT assay
A-375 = assay: Cytotoxicity in human A375 cells assessed as reduction in cell viability incubated for 24 hrs by MTT assay; details: A-375, 24 h
NCI-H446 = assay: Cytotoxicity in human NCI-H446 cells assessed as reduction in cell viability incubated for 24 hrs by MTT assay; details: NCI-H446, 24 h
[15] = Cytotoxicity in human SPC-A1 cells assessed as reduction in cell viability incubated for 24 hrs by MTT assay; details: SPCA1, 24 h
HepG2 [16] = assay: Cytotoxicity in human HepG2 cells assessed as reduction in cell viability incubated for 48 hrs by MTT assay; details: HepG2, 48 h
HeLa [17] = assay: Cytotoxicity in human HeLa cells assessed as reduction in cell viability incubated for 48 hrs by MTT assay

CC1(C)CC[C@@]23CC[C@]4(C)[C@@](OC2=O)([C@@H]3C1)[C@@H](Br)C[C@@H]1[C@@]2(C)CC/C(=N\O)C(C)(C)[C@@H]2CC[C@]14C
IC50 (MDA-MB-231): > 50 µM
IC50 (MCF7 [1]): 6.58 µM
IC50 (MDA-MB-468): 5.81 µM
IC50 (T47D): 5.7 µM
IC50 (MCF-12A): 20.4 µM
IC50 (HL-60): 10.2 µM
IC50 (HL60/ADR): 12.1 µM

COC(=O)[C@]12CCC(C)(C)C[C@H]1C1=CC[C@@H]3[C@@]4(C)C[C@@H](OS(N)(=O)=O)[C@H](O)C(C)(C)[C@@H]4CC[C@@]3(C)[C@]1(C)CC2
IC50 (HT-29 [2]): 7.5 µM
IC50 (A549 [3]): 6.4 µM

CC1=C(O)C(=O)C=C2C1=CC=C1[C@@]2(C)CC[C@@]2(C)[C@@H]3C[C@](C)(C(=O)NCCO)CC[C@]3(C)CC[C@]12C
IC50 (SGC-7901 [4]): 0.16 µM
IC50 (SMMC-7721): 0.3 µM

CC(=O)OC[C@@]1(C)[C@@H]2CC[C@]3(C)[C@H](CC=C4[C@@H]5[C@@H](C)[C@H](C)CC[C@]5(C(=O)O)CC[C@]43C)[C@@]2(C)C[C@@H](OC(C)=O)[C@@H]1OC(C)=O
IC50 (HepG2 [5]): 10.2 µM
IC50 (A549 [6]): 21.1 µM
IC50 (HeLa [7]): 24.2 µM
IC50 (PC-3): 17.5 µM

CC(=O)O[C@@H]1C[C@]2(C)[C@H]3CC=C4[C@@H]5CC(C)(C)CC[C@]5(C(=O)NCCCCCCCCCCC(=O)O)CC[C@@]4(C)[C@]3(C)CC[C@H]2C(C)(C)[C@H]1OC(C)=O
IC50 (HT-29 [8]): 3.1 µM
IC50 (HepG2 [9]): 14.2 µM
IC50 (B16-F10): 2.4 µM

COC(=O)C(C)NC(=O)[C@]12CC[C@@H](C)[C@H](C)[C@H]1C1=CC[C@@H]3[C@@]4(C)C[C@@H](OC(C)=O)[C@H](OC(C)=O)[C@@](C)(COC(C)=O)[C@@H]4CC[C@@]3(C)[C@]1(C)CC2 (stereo partly drawn)
IC50 (HepG2 [5]): 0.3 µM
IC50 (A549 [6]): 3.1 µM
IC50 (MCF7 [10]): 3.9 µM
IC50 (HeLa [7]): 5.1 µM
IC50 (SGC-7901 [11]): 9.2 µM
IC50 (PC-3): 10.1 µM

COC(=O)[C@]12CCC(C)(C)C[C@H]1C1=CC(=O)[C@@H]3[C@@]4(C)CC/C(=N\O)C(C)(C)[C@@H]4CC[C@@]3(C)[C@]1(C)CC2
IC50 (MDA-MB-231): 21.1 µM
IC50 (MCF7 [1]): 3.22 µM
IC50 (MDA-MB-468): 4.25 µM
IC50 (T47D): 10.1 µM
IC50 (MCF-12A): 25.7 µM
IC50 (HL-60): 3.72 µM
IC50 (HL60/ADR): 3.58 µM

COC(=O)C(C)NC(=O)[C@]12CC[C@@H](C)[C@H](C)[C@H]1C1=CC[C@@H]3[C@@]4(C)C[C@@H](O)[C@H](O)[C@@](C)(CO)[C@@H]4CC[C@@]3(C)[C@]1(C)CC2 (stereo partly drawn)
IC50 (HepG2 [5]): 20.5 µM
IC50 (A549 [6]): 21.8 µM
IC50 (MCF7 [10]): 17.1 µM
IC50 (HeLa [7]): 19.2 µM

C[C@H]1[C@H](C)CC[C@]2(C(N)=O)CC[C@]3(C)C(=CC[C@@H]4[C@@]5(C)CC[C@H](OC(=O)c6ccccc6)C(C)(C)[C@@H]5CC[C@]43C)[C@H]12
IC50 (HepG2 [12]): 8 µM
IC50 (MCF7 [13]): 44.6 µM

C[C@H]1[C@H](C)CC[C@]2(C(=O)OCc3ccccc3)CC[C@]3(C)C(=CC[C@@H]4[C@@]5(C)CC[C@H](OC(=O)CCC(=O)O)C(C)(C)[C@@H]5CC[C@]43C)[C@H]12
IC50 [14]: 8.1 µM

CC(=O)OC[C@]1(C)[C@@H]2CC[C@]3(C)[C@H](C(=O)C=C4[C@H]5[C@](C(=O)OCC(=O)N/N=C/c6ccccc6)(CC[C@@H](C)[C@@]5(C)O)CC[C@]43C)[C@@]2(C)CC[C@@H]1OC(C)=O
IC50 (A-375): 3.1 µM
IC50 (NCI-H446): 11.7 µM
IC50 [15]: 8.6 µM

C[C@@H]1CC[C@]2(C(=O)O)CC[C@]3(C)C(=CC(=O)[C@@H]4[C@@]5(C)CC[C@H](O)[C@](C)(CO)[C@@H]5CC[C@]43C)[C@@H]2[C@]1(C)O
IC50 (SGC-7901 [4]): 16.5 µM
IC50 (HepG2 [16]): 8.26 µM
IC50 (HepG2 [12]): 7.33 µM
IC50 (HeLa [17]): 18.7 µM
IC50 (A-375): 16.6 to 17.4 µM
IC50 (NCI-H446): 11.4 µM
IC50 [15]: 86 µM
